Measured values from US10703764B2, “Benzopiperazine compositions as BET bromodomain inhibitors” (FORMA Therapeutics, Inc., priority 2013, dated 2020).

How the values were obtained:
BRD4 BD1 = molecular target: T1, BRD4 BD1 (Homo sapiens, UniProt O60885); test: AlphaScreen binding assay, BRD4 Bromodomain 1
T1 construct: made in house
Protocol: (§1) The binding of Example compounds to BRD4 Bromodomain 1 and BRD4 Bromodomain 2 was assessed using 384-well AlphaScreen assay technology. His-epitope tagged BRD4 BD144-168 and BRD4 BD2333-460 were cloned, expressed, and purified to homogeneity. BRD4 BD1 and BRD4 BD2 binding and inhibition was assessed by monitoring the engagement of biotinylated Histone H4 (1-21) K5/8/12/16 tetra-acetylated peptide with the targets using the AlphaScreen technology (PerkinElmer). Specifically, in a 384-well black or white flat bottom plate, BRD4 BD1 (50 nM final) or BRD4 BD2 (100 nM final) was combined with peptide (50 nM final for BD1 or 100 nM final for BD2) in 50 mM HEPES (pH 7.3), 100 mM NaCl, 0.1% (w/v) BSA, and 0.01% (w/v) Triton X-100 either in the presence of DMSO (final 1.25% DMSO) or compound dilution series in DMSO. Alpha streptavidin donor beads and Nickel-chelate acceptor beads were added to a final concentration of 10 μg/ml each. After a minimum of 1 hour equilibration, plates were read on a BMG PHERAstar FS multi-label reader (BMG LabTech). The half maximal inhibitory concentration (IC50) values were calculated using IDBS Activity Base software with a four parameter logistic curve fit by the equation y=A+((B−A)/(1+((C/x)^D))), wherein A denotes the bottom plateau of the curve, B denotes the top plateau of the curve, C denotes the x value at the middle of the curve, D denotes the slope factor, x denotes the original known x values, and y denotes the original known y values. Data was fitted using the Levenburg Marquardt algorithm.

BRD4 BD2 = molecular target: T2, BRD4 BD2 (Homo sapiens, UniProt O60885); test: AlphaScreen binding assay, BRD4 Bromodomain 2
T2 construct: made in house
Protocol: as §1

SMILES	IC50 (BRD4 BD1) [nM]	IC50 (BRD4 BD2) [nM]
CC(=O)N1c2ccc(-c3cnn(C4COC4)c3)cc2N(C(=O)[C@H]2CC2(Cl)Cl)C[C@@H]1C (single isomer, unassigned) [Example I-113]	> 10000	> 500
CC(=O)N1c2ccc(-c3ccc(S(C)(=O)=O)cc3)cc2N(C(=O)c2ccco2)CC1CF (stereo not drawn) [Example I-7, 1-(2-(fluoromethyl)-4-(furan-2-carbonyl)-6-(4-(methylsulfonyl)phenyl)-3,4-dihydroquinoxalin-1(2H)-yl)ethan-1-one]	> 10000	> 500
CC(=O)N1c2ccc(-c3cnn(-c4nc5ccccc5o4)c3)cc2N(c2nc3ccccc3o2)C[C@@H]1C [Example I-56, (S)-1-(4-(benzo[d]oxazol-2-yl)-6-(1-(benzo[d]oxazol-2-yl)-1H-pyrazol-4-yl)-2-methyl-3,4-dihydroquinoxalin-1(2H)-yl)ethanone]	> 10000	> 500
CC(=O)N1c2cnc(-c3ccc(S(C)(=O)=O)cc3)cc2N(C(=O)c2ccco2)C[C@@H]1C [Example I-57, (S)-1-(1-(furan-2-carbonyl)-3-methyl-7-(4-(methylsulfonyl)phenyl)-2,3-dihydropyrido[3,4-b]pyrazin-4(1H)-yl)ethanone]	> 10000	50 to 500
CCC1(COC(=O)N2C[C@H](C)N(C(C)=O)c3ccc(-c4cnn(C5COC5)c4)cc32)COC1 [Example I-63, (S)-(3-ethyloxetan-3-yl)methyl 4-acetyl-3-methyl-7-(1-(oxetan-3-yl)-1H-pyrazol-4-yl)-3,4-dihydroquinoxaline-1(2H)-carboxylate]	1000 to 10000	50 to 500
CC(=O)N1c2ccc(-c3cnn(C4COC4)c3)cc2N(C(=O)OCC2COC2)C[C@@H]1C [Example I-64, (S)-oxetan-3-ylmethyl 4-acetyl-3-methyl-7-(1-(oxetan-3-yl)-1H-pyrazol-4-yl)-3,4-dihydroquinoxaline-1(2H)-carboxylate]	1000 to 10000	50 to 500
CC(=O)N1c2ccc(-c3cnn(C4COC4)c3)cc2N(C(=O)OCCC2COC2)C[C@@H]1C [Example I-67, (S)-2-(oxetan-3-yl)ethyl 4-acetyl-3-methyl-7-(1-(oxetan-3-yl)-1H-pyrazol-4-yl)-3,4-dihydroquinoxaline-1(2H)-carboxylate]	> 10000	> 500
CC(=O)N1c2ccc(-c3cnn(C4COC4)c3)cc2N(C(=O)OC2CC3(COC3)C2)C[C@@H]1C [Example I-70, 2-oxaspiro[3.3]heptan-6-yl (3S)-4-acetyl-3-methyl-7-[1-(oxetan-3-yl)-1H-pyrazol-4-yl]-1,2,3,4-tetrahydroquinoxaline-1-carboxylate]	1000 to 10000	> 500
CC(=O)N1c2ccc(-c3cnn(C4COC4)c3)cc2N(C(=O)OCC2CC2(C)C)C[C@@H]1C (stereo partly drawn) [Example I-73, (2,2-dimethylcyclopropyl)methyl (3S)-4-acetyl-3-methyl-7-(1-(oxetan-3-yl)-1H-pyrazol-4-yl)-3,4-dihydroquinoxaline-1(2H)-carboxylate]	1000 to 10000	50 to 500
CC(=O)N1c2ccc(-c3cnn(C4COC4)c3)cc2N(C(=O)OCC2CC2(F)F)C[C@@H]1C (stereo partly drawn) [Example I-75, (3S)-(2,2-difluorocyclopropyl)methyl 4-acetyl-3-methyl-7-(1-(oxetan-3-yl)-1H-pyrazol-4-yl)-3,4-dihydroquinoxaline-1(2H)-carboxylate]	1000 to 10000	> 500
CC(=O)N1c2ccc(-c3cnn(C4COC4)c3)cc2N(C(=O)OC2(C)CC2)C[C@@H]1C [Example I-76, (S)-1-methylcyclopropyl 4-acetyl-3-methyl-7-(1-(oxetan-3-yl)-1H-pyrazol-4-yl)-3,4-dihydroquinoxaline-1(2H)-carboxylate]	1000 to 10000	50 to 500
CC(=O)N1c2ccc(-c3cnn(C4COC4)c3)cc2N(C(=O)OCC(F)F)C[C@@H]1C [Example I-84, (S)-2,2-difluoroethyl 4-acetyl-3-methyl-7-(1-(oxetan-3-yl)-1H-pyrazol-4-yl)-3,4-dihydroquinoxaline-1(2H)-carboxylate]	1000 to 10000	> 500
C[C@H]1CN(c2nc3ccccc3o2)c2cc(-c3cnn(C4CC4)c3)ccc2N1C(=O)C1CC1 [Example I-92, (S)-(4-(benzo[d]oxazol-2-yl)-6-(1-cyclopropyl-1H-pyrazol-4-yl)-2-methyl-3,4-dihydroquinoxalin-1 (2H)-yl)(cyclopropyl)methanone]	1000 to 10000	50 to 500
C[C@H]1CN(C(=O)c2ccco2)c2cc(-c3ccc(S(C)(=O)=O)cc3)ccc2N1S(C)(=O)=O [Example I-96, (S)-furan-2-yl(3-methyl-4-(methylsulfonyl)-7-(4-(methylsulfonyl)phenyl)-3,4-dihydroquinoxalin-1(2H)-yl)methanone]	> 10000	> 500
CC(=O)N1c2ccc(Oc3ccccc3)nc2N(C(=O)C2CC2)C[C@@H]1C [Example I-97, (S)-1-(4-(cyclopropanecarbonyl)-2-methyl-6-phenoxy-3,4-dihydropyrido[2,3-b]pyrazin-1(2H)-yl)ethanone]	> 10000	> 500

Now from value to compound:

IC50 (BRD4 BD1) [nM]	IC50 (BRD4 BD2) [nM]	SMILES
1000 to 10000	50 to 500	CC(=O)N1c2ccc(-c3cnn(C4COC4)c3)cc2N(C(=O)[C@@H]2CC2(Cl)Cl)C[C@@H]1C (single isomer, unassigned) [Example I-112]
1000 to 10000	50 to 500	CC[C@H]1CN(C(=O)c2ccco2)c2cc(-c3ccc(S(C)(=O)=O)cc3)ccc2N1C(C)=O [Example I-6, (S)-1-(2-ethyl-4-(furan-2-carbonyl)-6-(4-(methylsulfonyl)phenyl)-3,4-dihydroquinoxalin-1(2H)-yl)ethan-1-one]
1000 to 10000	50 to 500	CC(=O)N1c2ccc(-c3cnn(C4COC4)c3)cc2N(C(=O)C2CCC2)C[C@@H]1C [Example I-11, (S)-1-(4-(cyclobutanecarbonyl)-2-methyl-6-(1-(oxetan-3-yl)-1H-pyrazol-4-yl)-3,4-dihydroquinoxalin-1(2H)-yl)ethanone]
100 to 1000	< 50	CC(=O)N1c2ccc(-c3ccc(S(C)(=O)=O)cc3)cc2N(C(=O)OC2CCC(F)(F)CC2)C[C@@H]1C [Example I-32, (S)-4,4-difluorocyclohexyl 4-acetyl-3-methyl-7-(4-(methylsulfonyl)phenyl)-3,4-dihydroquinoxaline-1(2H)-carboxylate]
1000 to 10000	> 500	CC(=O)N1c2ccc(-c3ccc(S(C)(=O)=O)cc3)cc2N(c2ncccn2)C[C@@H]1C [Example I-45, (S)-1-(2-methyl-6-(4-(methylsulfonyl)phenyl)-4-(pyrimidin-2-yl)-3,4-dihydroquinoxalin-1(2H)-yl)ethanone]
1000 to 10000	< 50	CC(=O)N1c2ccc(-c3ccc(S(C)(=O)=O)cc3)cc2N(c2ccccn2)C[C@@H]1C [Example I-47, (S)-1-(2-methyl-6-(4-(methylsulfonyl)phenyl)-4-(pyridin-2-yl)-3,4-dihydroquinoxalin-1 (2H)-yl)ethan-1-one]
1000 to 10000	50 to 500	CC(=O)N1c2ccc(-c3ccc(S(C)(=O)=O)cc3)cc2N(c2ncc3ccccc3n2)C[C@@H]1C [Example I-48, (S)-1-(2-methyl-6-(4-(methylsulfonyl)phenyl)-4-(quinazolin-2-yl)-3,4-dihydroquinoxalin-1(2H)-yl)ethanone]
1000 to 10000	> 500	CC(=O)N1c2ccc(-c3ccc(S(C)(=O)=O)cc3)cc2N(c2nccc(-c3ccccc3)n2)C[C@@H]1C [Example I-49, (S)-1-(2-methyl-6-(4-(methylsulfonyl)phenyl)-4-(4-phenylpyrimidin-2-yl)-3,4-dihydroquinoxalin-1(2H)-yl)ethanone]
1000 to 10000	> 500	CC(=O)N1c2ccc(-c3ccc(S(C)(=O)=O)cc3)cc2N(c2ncc(-c3ccccc3)cn2)C[C@@H]1C [Example I-50, (S)-1-(2-methyl-6-(4-(methylsulfonyl)phenyl)-4-(5-phenylpyrimidin-2-yl)-3,4-dihydroquinoxalin-1(2H)-yl)ethanone]
1000 to 10000	> 500	CC(=O)N1c2cnc(-c3ccc(S(C)(=O)=O)cc3)cc2N(C(=O)OC(C)C)C[C@@H]1C [Example I-58, isopropyl (S)-4-acetyl-3-methyl-7-(4-(methylsulfonyl)phenyl)-3,4-dihydro pyrido[3,4-b]pyrazine-1 (2H)-carboxylate]
1000 to 10000	> 500	CC(=O)N1c2ccc(-c3cnn(C4COC4)c3)cc2N(C(=O)OCC2(C)COC2)C[C@@H]1C [Example I-61, (S)-(3-methyloxetan-3-yl)methyl 4-acetyl-3-methyl-7-(1-(oxetan-3-yl)-1H-pyrazol-4-yl)-3,4-dihydroquinoxaline-1(2H)-carboxylate]
100 to 1000	50 to 500	CC(=O)N1c2ccc(-c3cnn(C4COC4)c3)cc2N(C(=O)OCC(C)(F)F)C[C@@H]1C [Example I-68, (S)-2,2-difluoropropyl 4-acetyl-3-methyl-7-(1-(oxetan-3-yl)-1H-pyrazol-4-yl)-3,4-dihydroquinoxaline-1(2H)-carboxylate]
